Drawing on PubChem BioAssay AID449745 (Broad Institute, 2010), this text covers AC50 for 66 compounds.

The experiment concerns the target Zinc finger protein mex-5 (Caenorhabditis elegans) (UniProt Q9XUB2). The experiment can be described thus: retest of MEX-5 TCR-2 binding inhibitors, confirmation, biochemical, C. elegans, fluorescence polarization, dose retest (AID 449745).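 Further: potency is for blocking Mex-5 binding to labeled TCR2 RNA like unlabeled competitor.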 As to conditions: Mex-5 / TCR-2 RNA binding. A general note: Fluorescence polarisation rises when a labelled molecule tumbles more slowly, as on binding a larger partner.

Results filed as inconclusive are left out. Active and inactive are the calls of the source. How the calls were made is not given here.

Sequence of Zinc finger protein mex-5 (Caenorhabditis elegans) (Q9XUB2 whole entry, looked up): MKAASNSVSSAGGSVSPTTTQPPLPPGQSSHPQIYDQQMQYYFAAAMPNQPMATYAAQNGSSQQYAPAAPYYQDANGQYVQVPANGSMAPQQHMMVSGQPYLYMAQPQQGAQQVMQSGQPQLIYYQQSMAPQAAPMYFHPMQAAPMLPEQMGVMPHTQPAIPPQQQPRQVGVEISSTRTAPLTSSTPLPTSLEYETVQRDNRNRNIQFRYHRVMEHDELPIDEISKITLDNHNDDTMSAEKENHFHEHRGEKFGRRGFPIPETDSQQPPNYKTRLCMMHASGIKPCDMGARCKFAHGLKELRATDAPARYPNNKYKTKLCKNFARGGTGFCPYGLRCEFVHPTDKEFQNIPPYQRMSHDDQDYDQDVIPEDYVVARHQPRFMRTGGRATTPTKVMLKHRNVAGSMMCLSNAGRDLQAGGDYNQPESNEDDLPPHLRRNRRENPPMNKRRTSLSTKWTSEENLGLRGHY

For `Oc1sc(C=Nc2ccc(F)cc2)c2ccccc12`, the concentration at half-maximal activity (AC50) was 22.2 µM.
As for `Cc1ccc(C(=O)O)cc1N1C(=O)c2cccc3c([N+](=O)[O-])ccc(c23)C1=O`, the figure is 25.6 µM; as for `Cc1nc2ccc3nc(NC(=O)c4ccc5c(c4)OCCO5)sc3c2s1`, > 38 µM (inactive).
The figure for `CC1=Nc2cccc3cccc(c23)N1C` is > 38 µM (inactive); for `N#C/C(=C\c1cccc([N+](=O)[O-])c1)c1nnc2n1CCCCC2` it is > 38 µM (inactive); for `COc1ncnc2c1N=C1CC(C)(C)CC(N)=C1S2` it is 19.6 µM.
The figure for `C/C(=N/Nc1ccc(C(=O)O)cc1)c1ccc(O)c(O)c1O` is 11.1 µM; for `COc1ccc2cc(/C=C3\SC(=S)NC3=O)c(N3CCOCC3)nc2c1` it is 24.1 µM; for `O=C1NC(=O)/C(=C\c2ccc(O)cc2O)S1` it is 11.5 µM.
As to `Cc1[nH][nH]c(=O)c1C(c1ccc(O)c([N+](=O)[O-])c1)c1c(C)[nH][nH]c1=O`, the AC50 is 8.52 µM.
As to `Cn1ncc2c(NNC(=O)c3ccc(Cl)cc3Cl)ncnc21`, the concentration at half-maximal activity (AC50) is 12.7 µM.
The figure for `Cc1cccc(N=Nc2c(O)[nH]c3ccc(F)cc23)c1` is 4.46 µM.
On to `O=c1cc2c(=O)oc3cc(O)c(O)oc3c2c(O)c1O`, for which the concentration at half-maximal activity (AC50) was 3 µM.
The figure for `Cc1ccc(O)c(N=CC2=C(O)c3ccccc3C2=O)c1` is 24.8 µM; for `COc1ccc(N(C(=O)CCl)C(C)(C(=O)Nc2c(C)cccc2C)c2ccccn2)cc1` (stereo unspecified) it is > 38 µM (inactive); for `O=C1C(Cl)=C(NC(=O)c2ccccc2)C(=O)C(Cl)=C1NC(=O)c1ccccc1` it is less than 0.3 µM.
On to `CCCCOc1ccc(-c2cc(C(F)(F)F)c(C#N)c(SCC(=O)O)n2)cc1`, for which the half-maximal activity concentration (AC50) was 11.8 µM.
On to `Cc1ccnc(N2C(=O)c3cccc4c([N+](=O)[O-])ccc(c34)C2=O)c1`, for which the half-maximal activity concentration (AC50) was 14.8 µM.
The figure for `COc1cc(OC)c(OC)cc1/C=C1/Cc2ccccc2C1=O` is 8.04 µM; for `Cc1ccc(NC(=O)/C(C#N)=C(\N)C(Cl)(Cl)Cl)nc1` it is 8.19 µM.
In the case of `Cc1oc2c(cc(NS(=O)(=O)c3ccc(C(C)C)cc3)c3ccccc32)c1C(=O)O`, the AC50 was 5.37 µM.
The figure for `COc1ccccc1N1C(C)=CC(=C(C#N)c2nc3ccccc3s2)C=C1C` is 13.4 µM; for `O=C(O)/C=C/C(=O)NNc1ncnc2ccccc12` it is 22.2 µM; for `Cc1cc(=O)n2[nH]c(=O)c(N=Nc3ccccc3)c2[nH]1` it is less than 0.3 µM.
As for `CN1CCN(c2ccc([N+](=O)[O-])c3no[n+]([O-])c23)CC1`, the half-maximal activity concentration (AC50) was 33.4 µM.
The figure for `N#C/C(=C\c1cn(-c2ccccc2)nc1-c1cc2ccccc2o1)c1nc2ccccc2[nH]1` is > 38 µM (inactive).
`Cc1cc(C)c2c3c(sc2n1)C(c1ccccc1)C(C#N)=C(N)O3` (stereo unspecified): the AC50 is > 38 µM (inactive).
As for `Cc1ccc(C)n1C(Cc1ccccc1)C(=O)O` (stereo unspecified), the figure is 8.84 µM; as for `O=C(NC(=S)NNS(=O)(=O)c1ccccc1)c1ccc([N+](=O)[O-])cc1`, 34.2 µM; as for `CN(N=Nc1ccc([N+](=O)[O-])cc1)c1ccccc1`, 9.51 µM.
In the case of `CC1=C(C#N)c2nc(N)c(C#N)c(C)c2/C1=C\c1ccc(-c2ccccc2C(=O)O)o1`, the AC50 was 17.9 µM.
Take `O=C(N/N=C/c1sc(=O)[nH]c1-[n+]1ccccc1)c1ccccc1[O-]`: the AC50 is 30.2 µM.
As for `O=C(N/N=C/c1oc(O)c2ccccc12)c1ccccc1O`, the figure is > 38 µM (inactive); as for `O=C(O[C@@H]1OC2COC(=O)c3cc(O)c(O)c(O)c3-c3c(cc(O)c(O)c3O)C(=O)O[C@@H]([C@H]1O)[C@@H]2O)c1cc(O)c(O)c(O)c1`, 5.19 µM; as for `Cc1cc(/C=C2\C(=O)NC(=O)N(Cc3ccccc3)C2=O)c(C)n1-c1ccc(Cl)c(C(=O)O)c1`, 33.2 µM.
The figure for `COc1ccc(NC(=S)NNc2ccc(S(=O)(=O)Nc3ccccc3C(=O)O)cc2[N+](=O)[O-])cc1` is 6.28 µM; for `CN1/C(=C\C=C2C(=O)NC(=O)NC2=O)C(C)(C)c2ccccc21` it is > 38 µM (inactive); for `O=C1c2cccc3c(Cl)ccc(c23)C(=O)N1O` it is 26.2 µM.
As for `O=C1CS/C(=N\NC(=O)c2ccccc2)N1`, the AC50 is 12 µM.
As for `CC1CCN(Cc2c(O)ccc3c2O/C(=C\c2ccco2)C3=O)CC1`, the figure is 6.87 µM; as for `Cc1cc(C(=O)NNC(=O)CCCCC(=O)NNC(=O)c2cc(C)[nH]n2)n[nH]1`, less than 0.3 µM; as for `Cc1nc2ccccc2n1/N=C/c1ccc([N+](=O)[O-])s1`, > 38 µM (inactive).
`CC1C(=O)NN=C1C(=O)N/N=C\c1ccc(O)cc1O` (stereo unspecified): the AC50 is 10.2 µM.
The figure for `CCOC(=O)c1c(-c2ccc(C)o2)csc1NC(=S)NC(=O)c1cccs1` is > 38 µM (inactive); for `Cc1nnc(N2C(=O)C(O)=C(C(=O)c3ccco3)C2c2ccc(C(C)C)cc2)s1` (stereo unspecified) it is 37.2 µM.
As for `COc1cc([N+](=O)[O-])ccc1N/C=C/C(=O)c1cccs1`, the figure is > 38 µM (inactive).
`O=[As](O)(O)c1ccc(N=Nc2ccc(O)cc2)cc1`: the AC50 is 37.5 µM.
Turning to `CCOC(=O)c1ccc(NC(=O)C(=O)NCc2ccc(/C=C(/C#N)C(=O)NCCOC)o2)cc1`, the AC50 was > 38 µM (inactive).
As for `C=C1c2cccc(O)c2C(O)=C2C(=O)[C@]3(O)C(O)=C(C(N)=O)C(=O)[C@@H](N(C)C)[C@@H]3[C@@H](O)[C@H]12`, the figure is 17.7 µM.
As to `COc1ccc(OC)c(N2C(=O)NC(=O)/C(=C\c3ccc([N+](=O)[O-])s3)C2=O)c1`, the concentration at half-maximal activity (AC50) is 16.1 µM.
As for `NS(=O)(=O)c1ccc(N=Nc2c(=O)[nH]n3c(=O)c4c([nH]c23)CCCC4)cc1`, the figure is less than 0.3 µM; as for `CC[n+]1c(/C=C/C=C/c2ccc(N(C)C)cc2)sc2ccccc21`, 18.8 µM; as for `Cc1c(C(=O)NNC(=S)Nc2ccc(S(N)(=O)=O)cc2)oc2ccccc12`, 12.1 µM.
In the case of `CN(C)c1ccc(/C=N/NC(=O)c2cnc3ccccc3c2)cc1`, the concentration at half-maximal activity (AC50) was 31.7 µM.
Regarding `O=c1ccc2cc3c([nH]c4ccc(Br)cc43)oc-2c1O`, the half-maximal activity concentration (AC50) is 3.77 µM.
As for `Cc1cc2c(n1-c1ccc(C(=O)O)cc1)CCCCC2`, the figure is 9.57 µM; as for `Cc1ccc(O)c(C(=O)c2cc(C#N)c(=O)n(-c3nccs3)c2)c1`, 14.2 µM; as for `CC1=C(C#N)C(=O)N(C2CCS(=O)(=O)C2)C(=O)/C1=C\c1ccco1` (stereo unspecified), 3.22 µM.
Turning to `COc1ccccc1C(=O)Oc1ccc2c(c1)O/C(=C\c1ccncc1)C2=O`, the concentration at half-maximal activity (AC50) is 10.8 µM.
Consider `O=C(C[n+]1ccc(C(=O)N/N=C/c2ccc(OCc3ccccc3)cc2)cc1)c1ccccc1`, for which the AC50 was 18.7 µM.
On to `Cc1ccc(C(=O)N/N=C\c2cc(Br)c(Br)o2)cn1`, for which the AC50 is 39.7 µM.
As for `CCOC(=O)NC(=O)COC(=O)c1ccc(Sc2ncn[nH]2)c([N+](=O)[O-])c1`, the figure is 16.1 µM.
As for `COc1cc(/C=C2/C(=O)NN(c3ccc(Cl)c(Cl)c3)C2=O)cc([N+](=O)[O-])c1O`, the figure is 31.6 µM; as for `COc1cc(CCC(=O)Nc2ccc(Cl)c(C(F)(F)F)c2)cc(OC)c1OC`, > 38 µM (inactive); as for `Cc1ccc(N2C(=O)NC(=O)/C(=C\c3ccc([N+](=O)[O-])o3)C2=O)cc1`, 6.08 µM.
As for `CCNC(=S)N/N=C/c1sc(N2CCCCC2)nc1-c1cccs1`, the figure is 10 µM.

In general, AC50 refers to the concentration giving half of the maximal activity seen.
